Results from patent publication US9896482B2, “Beta hairpin peptides having antiviral properties against Dengue virus” (CENTRO DE INGENIERÍA GENÉTICA Y BIOTECNOLOGÍA, priority 2014, dated 2018).
Marks after values point to notes of the source that are not given here. Where a SMILES comes first, the peptide text is derived from it. Bridges are numbered along the chain shown (N, C = ends). [ ]: non-standard residue; d: D form.

Columns and labels:
[1] = Transmission electron microscopy of aggregate morphology; type: physicochemical
Protocol: In order to analyze the morphology of the aggregates formed by peptide PHB4, peptide solutions were subjected to different experimental treatments where conditions such as temperature, incubation time and the presence of electrolytes were manipulated to facilitate aggregation (FIG. 10). For this particular study, two peptide solutions (2 mg/mL, 0.73 mM) were prepared, one in water and another in PBS. A sample was then taken from each, directly fixed on the grids and observed under the microscope (T0 samples). The remainder was incubated for 1 hour at 50° C. and then samples were taken and fixed immediately (T1 samples). The remainder was then incubated for an additional 2 hours at room temperature, and then fixed (T2 samples).

[2] = test system: DENV3 (NIBSC code CH53489); assay: Plaque reduction assay in Vero cells, DENV3; type: cell-based, Dengue virus; conditions: m.o.i. 0.001, read-out: Antiviral activity IC50 vs DENV3
Protocol: (§1) The cells were grown in 24 well plates until the monolayer reached approximately 90% confluence, after which they were washed twice with MEM medium without Fetal Bovine Serum (FBS). Then, peptide dilutions were added and the cell-peptide mixtures were incubated typically for 1 hour at 37° C., followed by the addition of a DENV serotype 2 preparation (NIBSC code S16803) at a multiplicity of infection (m.o.i.) of 0.001. The cells were then incubated for 1 hour at 37° C., and once the period of incubation with the viral inoculum concluded, were washed again to remove unbound virions and incubated for 5 days at 37° C. in high density medium (MEM supplemented with non-essential amino acids, 1% FBS, 1% carboxymethylcellulose) in order to let viral plaques form. Afterwards, the cells were stained with 0.1% Naphtol Blue Black in 0.15 M sodium acetate. Two replicates per experimental point were used in each assay, and three independent determinations were performed for each sample.
(§2) Next, it was decided to compare the antiviral activity of peptides PHB4 and HDIII3CL against all four DENV serotypes, with the objective of comparing their respective IC50 values. […]

[3] = Toxicity in Vero cells (MTT assay and manual cell counting); type: cell-based; conditions: ‡ non toxic at 1000 μM, read-out: Ctox50
Protocol: The toxicity of the beta hairpin peptides was assessed with the MTT (3-(4,5-dimethylthiazol-2-yl)-2,5-diphenyltetrazolium bromide, Invitrogen, USA) assay (Mosmann, T. (1983). J. Immunol. Methods 65, 55-63.), and by manual cell counting using a Neubauer chamber. Ninety-six well plates (Costar, USA) were seeded with 200 μL/well of a suspension containing Vero cells at 1×10^5 cells/mL and incubated until the monolayers reached approximately 90% confluence, typically for 18-24 h. After washing the cells twice with DMEM (Dulbecco's Modified Eagle Medium) medium, 50 μL/well were added of the peptide or additive dilutions to be evaluated (Triton ^X-100™ dissolved in PBS was used as positive toxicity control) and the plates were incubated at 37° C. under a 5% CO2 atmosphere for 2 or 24 h. Two different procedures were then employed to measure toxicity: • a) A 2 mg/mL solution of MTT in PBS was added (50 μL/well) and the plates were incubated for further 4 h at 37° C., 5% CO2. The medium was then removed, and 100 μL/well of DMSO were then added to solubilize formazan precipitates. Finally, the optical density (OD) of the supernatants at a wavelength of 540 nm was measured using a plate reader (Sensident Scan™, Merck, Germany). • b) The plates were washed with 200 μL/well of DMEM medium and then a trypsin solution (Sigma, USA) was added at 50 μL/well. After inactivating the trypsin by adding 150 μL/well of DMEM supplemented with 10% FBS, the cells were counted using the Trypan Blue (Gibco, USA) vital stain. The data were processed using the statistical software package Prism v5.3 (GraphPad, USA), using non-linear regression to fit them to a log10 (concentration) vs response curve.

DENV4 = assay: In vivo protection assay, intracranial challenge, DENV4; parameters: species or system Balb/c mice; conditions: 30 μg peptide inoculated intracranially with 10 median lethal doses, 21 days
Protocol: An experiment was set up to evaluate the in vivo antiviral activity of peptide PHB4 and compare it to that of peptide HDIII3CL. For this purpose, groups of 12 adult Balb/c mice (20 g average body weight) were anesthetized by ether inhalation and inoculated intracranially with 20 μL of viral preparations containing 10 times the median lethal dose of this model and the peptide to be evaluated. The animals recovered quickly and already appeared alert five minutes after the treatment, and were monitored afterwards for 21 days. The data were evaluated using the Kaplan-Meier logarithmic rank test.

[4] = Light scattering aggregation kinetics; type: physicochemical
Protocol: Light scattering was used to monitor the aggregation of peptide PHB4. The measurements were performed on a Shimadzu™ RF-5301PC (Shimadzu, Japan) spectrofluorimeter, acquiring data with the software provided by the instrument manufacturer. The wavelengths of the incident light beam (excitation) and the detector (emission) were set to 320 nm, using excitation and emission apertures of 5 nm. The scattering of light due to the peptide was calculated by subtracting, from the intensity of the light dispersed by the peptide, the intensity of the light dispersed by a solution without peptide (blank). Variations on light scattering due to the dissolution of the peptide in PBS were studied by acquiring data in time course mode, with a measurement frequency of 1 or 2 per second. The solutions of PHB4 in PBS were prepared by mixing one part of a solution of the peptide in water with one part of a PBS 2X solution.

[5] = test system: DENV1 (NIBSC code West Pac 74); assay: Plaque reduction assay in Vero cells, DENV1; type: cell-based, Dengue virus; conditions: m.o.i. 0.001, read-out: Antiviral activity IC50 vs DENV1
Protocol: as §1, §2

SMILES: CC[C@H](C)[C@@H]1NC(=O)[C@H](Cc2ccccc2)NC(=O)[C@H](Cc2c[nH]c3ccccc23)NC(=O)[C@H](CC(N)=O)NC(=O)[C@H](C(C)C)NC(=O)[C@H](CCCCN)NC(=O)[C@H](Cc2c[nH]c3ccccc23)NC(=O)[C@H](CCCCN)NC(=O)[C@H]2CCCN2C(=O)[C@H](CCCNC(=N)N)NC(=O)[C@H]([C@@H](C)O)NC(=O)[C@H](Cc2c[nH]c3ccccc23)NC(=O)[C@H](Cc2ccc(O)cc2)NC(=O)[C@H](C(C)C)NC(=O)[C@H](CCC(=O)O)NC(=O)[C@H]([C@@H](C)CC)NC(=O)[C@@H](N)CSSC[C@@H](C(=O)N[C@@H](CCCCN)C(=O)N[C@@H](CCCCN)C(=O)N[C@@H](CCCCN)C(N)=O)NC1=O [PHB4] (H-CIEVYWTR[dP]KWKVNWFICKKK-NH2; disulfide 1-18; N-terminus assumed)
- Size of protofibril/fibril-type filamentous structures ([1]; 2 mg/mL in water, after 50° C. treatment): 5-10 nm
- Diameter of particulates ([1]; 2 mg/mL in water, room temperature): 5-20 nm
- Size of filamentous structures ([1]; 2 mg/mL, immediately after dissolving in PBS): 5-20 nm
- IC50 [2]: 5 nM
- CC50 [3]: 13000 nM
- Protection (%) DENV4 (DENV4): 100*** %
- Maximum of ratio of dispersed light relative to time zero ([4]; 5 μM peptide in PBS): 11
- Maximum of ratio of dispersed light relative to time zero ([4]; 10 μM peptide in PBS): 7
- Latency period before increase of dispersed light ([4]; dissolved into PBS): < 2 min
- IC50 [5]: 2 nM
